Blank lines part the entries; values can stand above or below the molecule they belong to.
Key:
Format in all cases: binding
[1] = tested on: antiserum produced against oestriol conjugated to albumin (antiserum A); experiment: radioimmunoassay of oestriol, standard curve, antiserum A
Protocol: (§1) In the assay, an accurately known volume of the biological fluid is incubated with a standard amount of the radio-iodinated oestrogen derivative and a standard amont of the specific reagent, e.g. antibody, insufficient to bind all the oestrogens present. The radio-iodinated oestrogen derivatives and the specific reagent may conveniently be provided in buffered solution containing horse serum. […] The radioactive concentration of the precipitate and/or the supernatant liquid is then counted by standard techniques. If an absolute determination is required, a calibration curve may be generated in the usual way by means of oestrogen, e.g. oestriol, solutions of known concentrations, conveniently also in horse serum.
(§2) Chloramine-T (0.5 mg in 100 μl water) is added to a stirred mixture of oestriol (50 μg in 400 ul ethanol) and Na^125 I (10mCi in 100 μl dilute NaOH), and the mixture is stirred for a further 5 minutes. Sodium metabisulphite (1.2 mg in 500 μl water) is then added and the mixture stirred for 5 minutes before 1 ml of 0.1 M HCl is added. The mixture is then vigorously stirred with 1 ml of chloroform. The aqueous layer is separated from the organic solvent, and the aqueous layer is re-extracted with a further 1 ml of chloroform. The pooled chloroform extracts are evaporated to dryness under a stream of nitrogen, and the residue is redissolved in 50 μl of ethanol. The ethanol solution of ^125 I -- labelled oestriol derivative is purified by chromatography and the product is diluted in phosphate buffer containing horse serum (10%), sodium azide (1 mg/ml) and gelatine (1 mg/ml) prior to use in the radioimmunoassay
(§3) Samples of 50 μl of standard solutions of oestriol in horse serum, or of the unknown human serum samples, are dispensed into plastic tubes. To each tube is added 200 μl of a solution of enzymes (extracted from the snail Helix pomatia) in sodium acetate buffer, pH 5, and the contents of the tubes are briefly mixed. The tubes are then stoppered and incubated in a water bath at 37° C for 2 hours. After the incubation, replicate 50 μl samples are taken from the hydrolysed serum and dispensed into plastic tubes. to each tube is added 200 μl of phosphate buffer containing 10% horse serum, sodium azide (1 mg/ml) gelatine (1 mg/ml), and the oestriol derivative labelled with ^125 I as described above (approximately 0.3 μCi/ml). Volumes of 200 μl of the phosphate buffer containing horse serum, sodium azide and gelatine, and containing a dilution of antiserum produced against oestriol conjugated to albumin are added to each tube, and the contents of the tubes are then mixed. The tubes are left at ambient temperature for 30 minutes, and 500 μl of an ammoniumm sulphate solution (5.4 g in 10 ml water) is then added to each tube. After mixing, the tubes are centrifuged, the supernatant liquid is removed by aspiration and the precipitates in the tubes are counted in a γ-counter.

[2] = tested on: antiserum produced against oestriol conjugated to albumin (antiserum B); experiment: radioimmunoassay of oestriol, standard curve, antiserum B
Protocol: as §1, §2, §3

[3] = tested on: antiserum produced by immunising with oestriol-6-carbomethoxyoxime-BSA (antiserum A); experiment: radioimmunoassay of oestetrol, standard curve, antiserum A; conditions: antiserum A 1/100, label age 7 days
[4] = tested on: antiserum produced by immunising with oestriol-6-carbomethoxyoxime-BSA (antiserum B); experiment: radioimmunoassay of oestetrol, standard curve, antiserum B; conditions: antiserum B 1/100, label age 7 days
[5] = tested on: antiserum produced by immunising with oestrone-6-carbomethoxyoximethyroglobulin (Miles-Yeda); experiment: radioimmunoassay of oestrone, standard curve, Miles-Yeda antiserum; conditions: Miles-Yeda antiserum as supplied, label age 23 days
[6] = tested on: antiserum produced by immunising with an oestrone derivative coupled in the 6 position (The John Radcliffe Hospital, Oxford); experiment: radioimmunoassay of oestrone, standard curve, John Radcliffe Hospital antiserum; conditions: J. Radcliffe Hosp. antiserum 1/32,000, label age 30 days
[7] = tested on: antiserum produced by immunising with oestradiol-6-carbomethoxyoxime-BSA (Miles-Yeda); experiment: radioimmunoassay of oestradiol, standard curve, Miles-Yeda antiserum; conditions: Miles-Yeda antiserum as supplied, label age 23 days
[8] = tested on: antiserum produced by immunising with an oestradiol derivative coupled in the 6 position (The John Radcliffe Hospital, Oxford); experiment: radioimmunoassay of oestradiol, standard curve, John Radcliffe Hospital antiserum
[9] = J. Radcliffe antiserum 1/640, label age 31 days
[10] = J. Radcliffe antiserum 1/3200, label age 30 days

Structure (SMILES): C[C@]12CC[C@@H]3c4ccc(O)cc4CC[C@H]3[C@@H]1C[C@@H](O)[C@@H]2O [E3, Oestriol]
- % Bound, 50 ng E3 ([1]; 50 ng E3): 57.2%
- % Bound, 100 ng E3 ([1]; 100 ng E3): 47.3%
- % Bound, 200 ng E3 ([1]; 200 ng E3): 32.6%
- % Bound, 350 ng E3 ([1]; 350 ng E3): 23.0%
- % Bound, 500 ng E3 ([1]; 500 ng E3): 17.5%
- % Bound, 50 ng E3 ([2]; 50 ng E3): 55.2%
- % Bound, 100 ng E3 ([2]; 100 ng E3): 47.3%
- % Bound, 200 ng E3 ([2]; 200 ng E3): 33.0%
- % Bound, 350 ng E3 ([2]; 350 ng E3): 21.4%
- % Bound, 500 ng E3 ([2]; 500 ng E3): 17.3%

- % Binding in presence of 20ng E4 [3]: 11.0%
- % Binding in presence of 20ng E4 [4]: 8.1%
Structure (SMILES): C[C@]12CC[C@@H]3c4ccc(O)cc4CC[C@H]3[C@@H]1[C@@H](O)[C@@H](O)[C@@H]2O [E4, oestetrol]

Structure (SMILES): C[C@]12CC[C@@H]3c4ccc(O)cc4CC[C@H]3[C@@H]1CCC2=O [E1, oestrone]
- % Bound, 1ng oestrone [5]: 15.4%
- % Bound, 1ng oestrone [6]: 11.2%

Structure (SMILES): C[C@]12CC[C@@H]3c4ccc(O)cc4CC[C@H]3[C@@H]1CC[C@@H]2O [E2, oestradiol]
- % Bound, 1ng E2 [7]: 4.0%
- % Bound, 1ng E2 [8, 9]: 32.7%
- % Bound, 2ng E2 [8, 9]: 13.1%
- % Bound, 1ng E2 [8, 10]: 3.0%
- % Bound, 2ng E2 [8, 10]: 0.5%

Source: patent publication US4062733A, “Radio-assay of oestrogen” (The Radiochemical Centre Limited, priority 1975, dated 1977)
